Test system: cultured cardiomyocytes
Experiment: Pulsations of cultured cardiomyocytes before and after drug administration, by motion detection on moving images (drug evaluation apparatus)
Type: cell-based
Conditions: for interval / timing of the pulsations (peak interval, rhythm of the pulsations): before vs after drug administration (after a predetermined time elapses), predetermined part of the observation region
Protocol: FIG. 24 is a block diagram illustrating a main configuration example of a drug evaluation apparatus. The drug evaluation apparatus 1300 illustrated in FIG. 24 is an apparatus that evaluates the impact (effects, side effects, and the like) of a drug using the motions of the cultured cardiomyocytes 500 to which the drug is administered.
The imaging unit 1101 images the cultured cardiomyocytes 500 before drug administration and after drug administration.
More specifically, the evaluation index data generating unit 1303 performs, for example, between frame images of the evaluation object image data which are the moving images of the cultured cardiomyocytes 500, motion detection (generation of motion vectors) of the cultured cardiomyocytes 500 for each of the blocks which are partial regions into which the entire region of the frame image is divided. That is, the evaluation index data generating unit 1303 performs the motion detection of each of the blocks for a predetermined duration (for a predetermined number of frames). This duration may be a time of the moving images imaged by the imaging unit 1101 or may be shorter than the time.
The evaluation index data generating unit 1303 further obtains a motion amount (the length of the motion vector) of each of the generated motion vectors. That is, the evaluation index data generating unit 1303 generates the motion amounts of each of the frames of each of the blocks for a predetermined duration.
When the motion amounts of the frames of a certain block obtained by the evaluation index data generating unit 1303 are arranged in time series, for example, the graph shown in FIG. 25 is obtained. FIG. 25 is a diagram showing a form of a change in the motion amount of a certain block with respect to time obtained by the evaluation index data generating unit 1303, that is, an example of a form of the pulsations of cells.
In the graph of FIG. 25, the horizontal axis represents the elapsed time (the number of frames), and the vertical axis represents the motion amount (pixels/frame). A curve 1311 (before) represents the pulsations of the cultured cardiomyocytes 500 before drug administration, and a curve 1312 (after) represents the pulsations of the cultured cardiomyocytes 500 after drug administration. In addition, in the graph of FIG. 25, a waveform of a single pulsation (a contraction and a relaxation) is shown.
The pulsations of cardiomyocytes include contractions and relaxations, and in the curve 1311 and the curve 1312, the crest formed on the left means a “contraction” operation, and the crest formed on the right means a “relaxation” operation. A point P1-1 represents the peak of the contraction of the curve 1311 (before), and a point P1-2 represents the peak of the relaxation of the curve 1311 (before). A point P2-1 represents the peak of the contraction of the curve […] (after), and a point P2-2 represents the peak of the relaxation of the curve 1312 (after).
FIG. 31 is a diagram showing an example of forms of pulsations before and after drug administration. All the 8 graphs shown in FIG. 31 are observation results of forms (changes in the motion amount absolute value with respect to time) of pulsations of a predetermined part in an observation region of the cultured cardiomyocytes 500. The horizontal axis represents the time (sec), and the vertical axis represents the motion amount absolute value (pixcel/frame) between frames. That is, the amplitudes shown in each of the graphs represents the pulsations of the cultured cardiomyocytes 500.
The graphs on the left of FIG. 31 represent forms of the pulsations before drug administration, and the graphs on the right represent forms of the pulsations after drug administration (after a predetermined time elapses after the administration).
In addition, FIG. 32 is a diagram showing an example of forms of variations of the pulsations before and after drug administration. […]

[1] = FIG. 31, before vs after drug administration
[2] = FIG. 32, overlapped pulsations after drug administration

Row | SMILES | motion amount absolute value at the peaks [1] | waveform of the relaxation (the width of the pulsation) [1] | interval / timing of the pulsations (peak interval, rhythm of the pulsations) (FIG. 31) | variations of the height of the peak in the waveform of the contraction [2] | variations of the waveform of the relaxation (magnitude, time and number of appearance of the peak, width (QT elongation)) [2] | variations of the pulsations (overlapped waveforms of repeated pulsations) (FIG. 32, before vs after drug administration)
1 | CC(C)NCC(O)c1ccc(NS(C)(=O)=O)cc1 (racemic) [DL-sotalol] | becomes unstable (has variations) | changes (becomes unstable) | the timing of the pulsation becomes unstable | also has significant variations | has significant variations | 
2 | CC1(C)[C@@H](O)CC[C@]2(C)[C@H]3C(=O)C=C4[C@@H]5C[C@@](C)(C(=O)O)CC[C@]5(C)CC[C@@]4(C)[C@]3(C)CC[C@@H]12 [18-β-glycyrrhetinic acid] | become unstable (have variations) |  | become unstable (have variations) | has significant variations |  | 
3 | CC(=O)Oc1ccccc1C(=O)O [aspirin, acetylsalicylic acid] |  |  | does not have a significant impact |  |  | do not have significant variations
